Earlier results, collected in US10272261B2, “Methods and compositions for treating ocular glaucoma” (Massachusetts Eye and Ear Infirmary, priority 2004, dated 2019).

Tested on: pigmented rabbits
Conditions: pigmented rabbits compared with albino rabbits; cited from earlier work

Substance: chloro-aluminum sulfonated phthalocyanine [CASPc]
- duration of IOP reduction by ciliary body PDT: lasted a relatively shorter period than that of albino rabbits
